# Reference: US4735961A, “Oxazoles and thiazoles containing an aminohydroxypropoxyphenyl moiety” (Merck & Co., Inc., priority 1985, dated 1988)
# Test system: β2 : β1 receptors
# Assay: cardioselectivity, β2:β1 ratio (pulmonary versus cardiac effect, guinea pig trachea versus atria)
# Assay type: cell-based
# Details: ratio of pulmonary (β2) to cardiac (β1) effect; over 1 = cardioselective
# Description: Expressed in different terms, a smaller amount of a compound of the invention is required to block isoproterenol-induced elevation in heart rate than is required to block the isoproterenol-induced relaxation of the bronchi. This cardioselectivity factor can be expressed as the ratio of ED50 for pulmonary effect (β2):ED50 for cardiac effect (β1). Where the β2 :β1 ratio is over 1, then the compound would be considered to have cardioselective activity.
row,SMILES,β2 :β1
1,"COc1ccc(CCNCC(O)COc2ccc(-c3ncco3)cc2)cc1OC (stereo not drawn) [Example 1, 2-p-[3-(3,4-Dimethoxyphenethylamino)-2-hydroxypropoxy]phenyl oxazole]",19
2,"COc1ccc(CCNC[C@H](O)COc2ccc(-c3nccs3)cc2)cc1OC [Example 2, (S) 2-p-[3-(3,4-Dimethoxyphenylethyl)amino-2-hydroxypropoxy]phenyl thiazole]",813
3,"OC(CNC1CC1)COc1ccc(-c2nccs2)cc1 (stereo not drawn) [Example 3, 2-[p-(3-Cyclopropylamino-2-hydroxypropoxy)phenyl]thiazole]",85
